# Laboratory results published in patent US7456167B2, “Cyclopropyl fused indolobenzazepine HCV NS5B inhibitors” (Bristol-Myers Squibb Company, priority 2006, dated 2008).
# Like-named read-outs stand apart in the source and are kept apart here.
# What was measured:
# [1] = target: T1, HCV NS5B RdRp genotype 1b (Hepatitis C virus genotype 1b, UniProt Q9WMX2); test: Modified HCV NS5B RdRp enzyme assay (preincubation protocol); assay type: biochemical
# T1 construct: The protein was expressed with an 18 amino acid C-terminal truncation to enhance the solubility; made in house; host or cells: E. coli BL21(DE3)
# Procedure: HCV NS5B RdRp cloning, expression, and purification. The cDNA encoding the NS5B protein of HCV, genotype 1b, was cloned into the pET21a expression vector. The protein was expressed with an 18 amino acid C-terminal truncation to enhance the solubility. The E. coli competent cell line BL21(DE3) was used for expression of the protein. Cultures were grown at 37° C. for ˜4 hours until the cultures reached an optical density of 2.0 at 600 nm. The cultures were cooled to 20° C. and induced with 1 mM IPTG. Fresh ampicillin was added to a final concentration of 50 μg/ml and the cells were grown overnight at 20° C.
# Cell pellets (3 L) were lysed for purification to yield 15-24 mgs of purified NS5B. The lysis buffer consisted of 20 mM Tris-HCl, pH 7.4, 500 mM NaCl, 0.5% triton X-100, 1 mM DTT, 1 mM EDTA, 20% glycerol, 0.5 mg/ml lysozyme, 10 mM MgCl2, 15 ug/ml deoxyribonuclease I, and Complete TM protease inhibitor tablets (Roche). After addition of the lysis buffer, frozen cell pellets were resuspended using a tissue homogenizer. To reduce the viscosity of the sample, aliquots of the lysate were sonicated on ice using a microtip attached to a Branson sonicator. The sonicated lysate was centrifuged at 100,000×g for 1 hr at 4° C. and filtered through a 0.2 μm filter unit (Corning).
# The protein was purified using three sequential chromatography steps: Heparin sepharose CL-6B, polyU sepharose 4B, and Hitrap SP sepharose (Pharmacia). The chromatography buffers were identical to the lysis buffer but contained no lysozyme, deoxyribonuclease I, MgCl2 or protease inhibitor and the NaCl concentration of the buffer was adjusted according to the requirements for charging the protein onto the column. Each column was eluted with a NaCl gradient which varied in length from 5-50 column volumes depending on the column type. After the final chromatography step, the resulting purity of the enzyme is >90% based on SDS-PAGE analysis. The enzyme was aliquoted and stored at −80° C.
# Standard HCV NS5B RdRp enzyme assay. HCV RdRp genotype 1b assays were run in a final volume of 60 μl in 96 well plates (Costar 3912). The assay buffer is composed of 20 mM Hepes, pH 7.5, 2.5 mM KCl, 2.5 mM MgCl2, 1 mM DTT, 1.6 U RNAse inhibitor (Promega N2515), 0.1 mg/ml BSA (Promega R3961), and 2% glycerol. All compounds were serially diluted (3-fold) in DMSO and diluted further in water such that the final concentration of DMSO in the assay was 2%. HCV RdRp genotype 1b enzyme was used at a final concentration of 28 nM. A polyA template was used at 6 nM, and a biotinylated oligo-dT12 primer was used at 180 nM final concentration. Template was obtained commercially (Amersham 27-4110). Biotinylated primer was prepared by Sigma Genosys. 3H-UTP was used at 0.6 μCi (0.29 μM total UTP). Reactions were initiated by the addition of enzyme, incubated at 30° C. for 60 min, and stopped by adding 25 μl of 50 mM EDTA containing SPA beads (4 μg/μl, Amersham RPNQ 0007). Plates were read on a Packard Top Count NXT after >1 hr incubation at room temperature.
# Modified HCV NS5B RdRp enzyme assay. A modified enzyme assay was performed essentially as described for the standard enzyme assay except for the following: The biotinylated oligo dT12 primer was precaptured on streptavidin-coated SPA beads by mixing primer and beads in assay buffer and incubating at room temperature for one hour. Unbound primer was removed after centrifugation. The primer-bound beads were resuspended in 20 mM Hepes buffer, pH 7.5 and used in the assay at final concentrations of 20 nM primer and 0.67 μg/μl beads. Order of addition in the assay: enzyme (14 nM) was added to diluted compound followed by the addition of a mixture of template (0.2 nM), 3H-UTP (0.6 μCi, 0.29 μM), and primer-bound beads, to initiate the reaction; concentrations given are final. Reactions were allowed to proceed for 4 hours at 30° C.
# IC50 values for compounds were determined using seven different [I]. […]
# HCV replicon cells = test: HCV replicon FRET assay; assay type: cell-based; conditions: Hepatitis C virus
# Description: FRET Assay Preparation. To perform the HCV FRET screening assay, 96-well cell culture plates were used. The FRET peptide (Anaspec, Inc.) (Taliani et al., Anal. Biochem. 1996, 240, 60-67) contains a fluorescence donor, EDANS, near one end of the peptide and an acceptor, DABCYL, near the other end. The fluorescence of the peptide is quenched by […] resonance energy transfer (RET) between the donor and the acceptor, but as the NS3 protease cleaves the peptide the products are released from RET quenching and the fluorescence of the donor becomes apparent. The assay reagent was made as follows: 5× cell Luciferase cell culture lysis reagent from Promega (#E153A) diluted to 1× with dH2O, NaCl added to 150 mM final, the FRET peptide diluted to 20 uM final from a 2 mM stock.
# To prepare plates, HCV replicon cells, with or without a Renilla luciferase reporter gene, were trypsinized and placed into each well of a 96-well plate with titrated test compounds added in columns 3 through 12; columns 1 and 2 contained a control compound (HCV protease inhibitor), and the bottom row contained cells without compound. The plates were then placed in a CO2 incubator at 37° C.
# Assays. Subsequent to addition of the test compounds described above (FRET Assay Preparation), at various times the plate was removed and Alamar blue solution (Trek Diagnostics, #00-100) was added per well as a measure of cellular toxicity. After reading in a Cytoflour 4000 instrument (PE Biosystems), plates were rinsed with PBS and then used for FRET assay by the addition of 30 ul of the FRET peptide assay reagent described above (FRET Assay Preparation) per well. The plate was then placed into the Cytoflour 4000 instrument which had been set to 340 excite/490 emission, automatic mode for 20 cycles and the plate read in a kinetic mode. Typically, the signal to noise using an endpoint analysis after the reads was at least three-fold. Alternatively, after Alamar blue reading, plates were rinsed with PBS, 50 ul of DMEM (high glucose) without phenol red was added and plates were then used for luciferase assay using the Promega Dual-Glo Luciferase Assay System.
# Compound analysis was determined by quantification of the relative HCV replicon inhibition and the relative cytotoxicity values. To calculate cytoxicity values, the average Alamar Blue fluorescence signals from the control wells were set as 100% non-toxic. The individual signals in each of the compound test wells were then divided by the average control signal and multiplied by 100% to determine […]. To calculate the HCV replicon inhibition values, an average background value was obtained from the two wells containing the highest amount of HCV protease inhibitor at the end of the assay period. These numbers were similar to those obtained from naïve Huh-7 cells.
# The background numbers were then subtracted from the average signal obtained from the control wells and this number was used as 100% activity. The individual signals in each of the compound test wells were then divided by the averaged control values after background subtraction and multiplied by 100% to determine percent activity. EC50 values for a protease inhibitor titration were calculated as the concentration which caused a 50% reduction in FRET or luciferase activity. The two numbers generated for the compound plate, percent cytoxicity and percent activity were used to determine compounds of interest for further analysis.
# [2] = HCV NS5B RdRp genotype 1b, preincubation protocol, read-out: IC50
# [3] = HCV replicon cells, FRET assay, read-out: EC50
# T1 sequence (Q9WMX2 2420-2992): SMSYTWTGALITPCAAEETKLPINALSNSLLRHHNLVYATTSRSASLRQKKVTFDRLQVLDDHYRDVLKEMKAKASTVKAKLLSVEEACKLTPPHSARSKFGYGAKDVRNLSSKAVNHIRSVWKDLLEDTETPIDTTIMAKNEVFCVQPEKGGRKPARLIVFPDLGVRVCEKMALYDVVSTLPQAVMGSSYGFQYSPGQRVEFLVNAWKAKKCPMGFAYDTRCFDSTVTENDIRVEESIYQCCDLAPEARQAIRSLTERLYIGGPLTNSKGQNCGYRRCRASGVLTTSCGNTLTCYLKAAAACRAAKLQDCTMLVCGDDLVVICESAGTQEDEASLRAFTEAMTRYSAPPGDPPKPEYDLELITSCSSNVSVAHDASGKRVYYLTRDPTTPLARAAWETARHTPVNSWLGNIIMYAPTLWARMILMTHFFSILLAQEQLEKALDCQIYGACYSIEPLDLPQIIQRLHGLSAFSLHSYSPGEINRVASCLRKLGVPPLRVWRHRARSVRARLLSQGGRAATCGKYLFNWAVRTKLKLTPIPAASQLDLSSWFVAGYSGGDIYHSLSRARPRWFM
SMILES,IC50 [1] [nM],EC50 (HCV replicon cells) [nM],"IC50 [1, 2] [nM]",EC50 (HCV replicon cells; [3]) [nM]
COc1ccc2c(c1)C1CC1(S(=O)(=O)N1C3CCC1CC(C)(O)C3)Cn1c-2c(C2CCCCC2)c2ccc(C(=O)NS(=O)(=O)N(C)C)cc21 (stereo not shown),20 to 1000,20 to 1000,,
COc1ccc2c(c1)C1CC1(S(=O)(=O)N1C[C@@H](C)N(C)[C@@H](C)C1)Cn1c-2c(C2CCCCC2)c2ccc(C(=O)NS(C)(=O)=O)cc21 (stereo partly shown),,,20 to 1000,20 to 1000
COc1ccc2c(c1)C1CC1(S(=O)(=O)N(C)CCN(C)C)Cn1c-2c(C2CCCCC2)c2ccc(C(=O)O)cc21 (stereo not shown),,,20 to 1000,20 to 1000
CCN1CC2CC1CN2S(=O)(=O)C12CC1c1cc(OC)ccc1-c1c(C3CCCCC3)c3ccc(C(=O)NS(=O)(=O)N(C)C)cc3n1C2 (stereo not shown),,,20 to 1000,20 to 1000
COc1ccc2c(c1)C1CC1(S(=O)(=O)N(C)CC(=O)N1CCOCC1)Cn1c-2c(C2CCCCC2)c2ccc(C(=O)O)cc21 (stereo not shown),,,20 to 1000,20 to 1000
COc1ccc2c(c1)C1CC1(S(=O)(=O)N1C3CC1CN(C)C3)Cn1c-2c(C2CCCCC2)c2ccc(C(=O)NS(=O)(=O)N3CCOCC3)cc21 (stereo not shown),,,20 to 1000,20 to 1000
COc1ccc2c(c1)C1CC1(S(=O)(=O)N1CCC(O)CC1)Cn1c-2c(C2CCCCC2)c2ccc(C(=O)O)cc21 (stereo not shown),,,20 to 1000,20 to 1000
COc1ccc2c(c1)C1CC1(S(=O)(=O)N1CCC1)Cn1c-2c(C2CCCCC2)c2ccc(C(=O)NS(=O)(=O)C(C)C)cc21 (stereo not shown),,,20 to 1000,20 to 1000
COc1ccc2c(c1)C1CC1(S(=O)(=O)N1C3CC1CN(C)C3)Cn1c-2c(C2CCCCC2)c2ccc(C(=O)NS(=O)(=O)C3CC3)cc21 (stereo not shown),,,20 to 1000,20 to 1000
COc1ccc2c(c1)C1CC1(S(=O)(=O)N1CC[C@@H](N(C)C)C1)Cn1c-2c(C2CCCCC2)c2ccc(C(=O)NS(=O)(=O)N(C)C)cc21 (stereo partly shown),,,20 to 1000,20 to 1000
COc1ccc2c(c1)C1CC1(S(=O)(=O)N1C[C@@H](C)N(C)[C@@H](C)C1)Cn1c-2c(C2CCCCC2)c2ccc(C(=O)NS(=O)(=O)N3CCOCC3)cc21 (stereo partly shown),,,20 to 1000,20 to 1000
COc1ccc2c(c1)C1CC1(S(=O)(=O)N1C[C@@H](C)N(C)[C@@H](C)C1)Cn1c-2c(C2CCCCC2)c2ccc(C(=O)NS(=O)(=O)C(C)C)cc21 (stereo partly shown),,,20 to 1000,20 to 1000
COc1ccc2c(c1)C=C(S(=O)(=O)N1CCOCC1)Cn1c-2c(C2CCCCC2)c2ccc(C(=O)NS(=O)(=O)N(C)C)cc21,,,20 to 1000,20 to 1000
COc1ccc2c(c1)C1CC1(S(=O)(=O)N1C3CCC1CC3)Cn1c-2c(C2CCCCC2)c2ccc(C(=O)NS(=O)(=O)C(C)C)cc21 (stereo not shown),20 to 1000,20 to 1000,,
